According to patent US20240124483A1, “Methods for the Treatment of Fibrotic Disease” (SHY Therapeutics, LLC, priority 2021, published 2024):
Like-named read-outs stand apart in the source and are kept apart here.

Legend:
KRas wild type = KRas wild type (Homo sapiens (Human), UniProt P01116); assay: Ras GTP Binding Domain Inhibition Assay, KRas wild type
Protocol: (§1) A Ras Superfamily Activity Assay (as disclosed in International Application No. PCT/US2018/038613, filed Jun. 20, 2018, which is incorporated by reference in its entirety) was used as a specific assay to evaluate compounds against the following for the following Ras Superfamily proteins: KRas wild type, KRas Q61H mutant, KRas G12C mutant, KRas G12D mutant, Rac-1, and Rho-A.
(§2) Buffer-I: • 25 mM Tris-HCl, pH 7.4 • 27 mM KCl • 137 mM NaCl • 1 mM MgCl2 • 1 mM DTT
(§3) Buffer-II: • 50 mM Tris-HCl, pH 7.0 • 1 mM MgCl2 • 1 mM DTT
(§4) The small GTPases proteins: KRas wild type. KRas Q61H mutant, KRas G12C mutant, KRas G12D mutants, Rac-1, and Rho-A were expressed as His-tagged proteins. In addition, the Guanosine nucleotide Exchange Factor (GEF) Sos protein (residues 556-1049) was expressed as a His-tagged protein. In cells, the guanine nucleotide exchange factor Sos protein promotes activation of Ras proteins by stimulating an exchange of GDP for GTP. The inclusion of Sos to the Ras GTP binding domain inhibition assay may be considered as an alternative representation of physiological cellular conditions for evaluating the inhibitory activity of some of the tested small molecules.
(§5) For the assay, all purified small GTPases proteins were diluted in Buffer-I or Buffer-II to a final concentration of 10-30 μg/mL. 200 μL of each diluted protein was added to a nickel-coated 96-well plate and incubated overnight at 4° C. Then the protein solution was discarded and 200 μL of Buffer-I or Buffer-II was added to each well in the presence of 1% DMSO. Compounds to be tested were added to the protein-coated wells at final concentration of 20 μM, and incubated for 3 hours at room temperature with and without 10-30 μg/mL of Sos added to the final hour of the incubation. When performing IC50 measurements a serial dilution of all tested concentrations was added. Then Cy3-GTP or Cy5-GTP was added to each well to a final concentration of 100 nM. The labeled GTP was incubated for 45 minutes at room temperature. Following GTP incubation, wells were washed 3× in Buffer-I or Buffer-II and 200 μL of Buffer-I or Buffer-II was added to each well. Following washes, the amount of bound labeled-GTP was measured using a SpectraMax M3 (Molecular Devices).

Rac-1 = Rac-1 (Homo sapiens (Human), UniProt P63000); assay: Ras GTP Binding Domain Inhibition Assay, Rac-1; conditions: without SOS, read-out: Rac-1: % inh.
Protocol: as §1, §2, §3, §4, §5

Smad2/3 phosphorylation = assay: Phospho-Smad2/3 Inhibition Assay in Panc-1 (western blot); assay type: cell-based; conditions: Homo sapiens; 10 μM, 3 hours; PANC-1 stimulated with 10 ng/ml TGF-b1 for 1 hour; read-out: % inh of Smad2/3 phosphorylation in PANC-1
Protocol: (§6) Cell lines: Human tumor-derived pancreatic cancer cell line Panc-1 and mouse muscle myoblast C2C12 were purchased from American Type Culture Collection and grown in complete DMEM-High Glucose, supplemented with penicillin (100 U/mL), streptomycin (100 μg/mL), and 10% heat-inactivated FBS at 37° C. in a humidified incubator with 5% CO2.
(§7) Method: Cells were plated at 350000 cells/well density in a 12-well plate, allowed 3 hours to adhere to the plate, then starved in the appropriate medium in the presence of 0.5% FBS overnight. The small molecules to be tested were added to the cells in the final concentration of 10 μM in the presence of 0.3% DMSO for 3 hours incubation at 37° C. For IC50 value determination, serial dilutions of compounds were added to cells under the same conditions. Next, Panc-1 cells were stimulated with 10 ng/ml TGF-b1 for 1 hour, and C2C12 cells were stimulated with 10 ng/ml TGF-b1 for 20 minutes (recombinant human TGF-b1, R&D Systems). After stimulation cells were lysed with lysis buffer containing 1% Triton X-100, EDTA, and Halt™ Protease & Phosphatase Inhibitor Cocktail (Thermo Scientific). Protein concentration was assessed by BCA protein assay (Thermo Scientific). Phosphorylation level of Smad2/Smad3 was determined by western blot.
(§8) Western blot protocol: Equal amounts of protein (15-50 μg) were separated by SDS-PAGE and transferred to nitrocellulose membranes (Invitrogen by Thermo Fisher Scientific). The membrane was stained with Ponceau S Stain (Boston BioProducts) to verify uniform protein loading. Membranes were blocked with 10% milk and phosphorylation levels of Smad2/Smad3 were assessed by incubating overnight at 4° C. with the following antibodies: Phospho-Smad2 (Ser465/467) and Phosph-Smad3 (Ser423/425), both from Cell Signaling Technology. Then the membranes were incubated with HRP-conjugated secondary antibody (Jackson Immunoresearch, West Grove, PA). Bands were incubated in Amersham ECL Prime Western Blotting Detection Reagent (GE Healthcare) and visualized using the ChemiDoc MP imaging system (Bio-Rad).

JNK = JNK Activation Assay in Panc-1 (western blot); assay type: cell-based, Human; design: key: Y = yes; N = No; conditions: at 10 μM
Protocol: as §6
as §7, with “JNK” for “Smad2/Smad3”
as §8, with “Smad2, Smad3, INK and p38” for “Smad2/Smad3”, “antibody: Phospho-SAPK/JNK (Thr183/Tyr185),” for “antibodies: Phospho-Smad2 (Ser465/467) and Phosph-Smad3 (Ser423/425), both”

MiaPaca2 = MiaPaca2 proliferation; assay type: cell-based; conditions: Homo sapiens, MIA PaCa-2; for inhibition at 10 µM: read-out: % inh of proliferation in MiaPaca2
[1] = + SOS, read-out: KRas wild type + SOS: % inh.
[2] = without SOS, read-out: KRas wild type: % inh.

Chain of KRas wild type (P01116 other isoform, or with tags, fused parts or gaps): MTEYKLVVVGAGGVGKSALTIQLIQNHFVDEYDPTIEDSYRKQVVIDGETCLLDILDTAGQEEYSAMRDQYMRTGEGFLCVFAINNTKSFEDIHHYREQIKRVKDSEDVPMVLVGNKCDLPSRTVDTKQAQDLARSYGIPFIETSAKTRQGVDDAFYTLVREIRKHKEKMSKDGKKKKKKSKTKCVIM

Row | inhibition at 20 µM (KRas wild type; [1]) [%] | inhibition at 20 µM (KRas wild type; [2]) [%] | inhibition at 20 µM (Rac-1) [%] | IC50 (MiaPaca2) [µM] | SMILES | inhibition at 10 µM (Smad2/3 phosphorylation) [%] | Activation of JNK in PANC-1 (JNK) | inhibition at 10 µM (MiaPaca2) [%]
1 | 76 to 100 | 26 to 45 | 1 to 25 | 1 to 4.99 | COc1cccc(-c2sc3nc(-c4nccn4C)nc(N[C@@H]4CC[C@@H](OC)C4)c3c2-c2ccccc2)c1F (racemic) [Compound 41, 6-(2-Fluoro-3-methoxyphenyl)-N-((1R,3R)-3-methoxycyclopentyl)-2-(1-methyl-1H-imidazol-2-yl)-5-phenylthieno[2,3-d]pyrimidin-4-amine] | 76 to 100 | Y | 76 to 100
2 | 76 to 100 | 26 to 45 | 1 to 25 | 5 to 10 | COc1cccc(-c2sc3nc(-c4nccn4C)nc(N[C@@H]4CC[C@@H](OC)C4)c3c2C)c1F (racemic) [Compound 43, rac-6-(2-Fluoro-3-methoxyphenyl)-N-((1R,3R)-3-methoxycyclopentyl)-5-methyl-2-(1-methyl-1H-imidazol-2-yl)thieno[2,3-d]pyrimidin-4-amine] | 76 to 100 | Y | 46 to 75
3 | 76 to 100 | 46 to 75 | 0 | 5 to 10 | COc1cc(-c2sc3nc(-c4nccn4C)nc(N[C@@H]4CC[C@H](OC)C4)c3c2-c2ccccc2)ccn1 (racemic) [Compound 44, rac-N-((1R,3S)-3-Methoxycyclopentyl)-6-(2-methoxypyridin-4-yl)-2-(1-methyl-1H-imidazol-2-yl)-5-phenylthieno[2,3-d]pyrimidin-4-amine] | 76 to 100 | Y | 76 to 100
4 | 76 to 100 | 76 to 100 | 46 to 75 | < 1 | COc1cc(-c2sc3nc(-c4nccn4C)nc(N[C@@H]4CC[C@@H](OC)C4)c3c2-c2ccccc2)ccn1 (racemic) [Compound 47, N-((1R,3R)-3-Methoxycyclopentyl)-6-(2-methoxypyridin-4-yl)-2-(1-methyl-1H-imidazol-2-yl)-5-phenylthieno[2,3-d]pyrimidin-4-amine] | 76 to 100 | Y | 76 to 100

Further lines, the compound ahead of its results:

Row | SMILES | inhibition at 20 µM (KRas wild type; [1]) [%] | inhibition at 20 µM (KRas wild type; [2]) [%] | inhibition at 20 µM (Rac-1) [%] | IC50 (MiaPaca2) [µM] | inhibition at 10 µM (Smad2/3 phosphorylation) [%] | Activation of JNK in PANC-1 (JNK) | inhibition at 10 µM (MiaPaca2) [%]
5 | COCCn1ccc(-c2sc3nc(-c4nccn4C)nc(NC[C@H]4CC[C@H]4COC)c3c2C)n1 (racemic) [Compound 38, rac-6-(1-(2-Methoxyethyl)-1H-pyrazol-3-yl)-N-(((1S,2R)-2-(methoxymethyl)cyclobutyl)methyl)-5-methyl-2-(1-methyl-1H-imidazol-2-yl)thieno[2,3-d]pyrimidin-4-amine] | 76 to 100 | 46 to 75 | 1 to 25 | 5 to 10 | 46 to 75 | Y | 76 to 100
6 | COCCn1ccc(-c2sc3nc(-c4nccn4C)nc(N[C@@H]4CC[C@H](OC)C4)c3c2C)n1 (racemic) [Compound 39, rac-N-((1R,3S)-3-Methoxycyclopentyl)-6-(1-(2-methoxyethyl)-1H-pyrazol-3-yl)-5-methyl-2-(1-methyl-1H-imidazol-2-yl)thieno[2,3-d]pyrimidin-4-amine] | 76 to 100 | 76 to 100 | 26 to 45 | 5 to 10 | 0 | Y | 76 to 100
7 | CO[C@H]1C[C@H](CNc2nc(-c3nccn3C)nc3sc(-c4ccn(C(C)C)n4)c(C)c23)C1 [Compound 16, 6-(1-Isopropyl-1H-pyrazol-3-yl)-N-(((1r,3r)-3-methoxycyclobutyl)methyl)-5-methyl-2-(1-methyl-1H-imidazol-2-yl)thieno[2,3-d]pyrimidin-4-amine] | 46 to 75 | 76 to 100 | 26 to 45 | < 1 | 1 to 25 | Y | 76 to 100
8 | COc1cccc(Nc2nc(-c3nccn3C)nc3sc(-c4ccn(C(C)C)n4)c(C)c23)c1 [Compound 17, 6-(1-Isopropyl-1H-pyrazol-3-yl)-N-(3-methoxyphenyl)-5-methyl-2-(1-methyl-1H-imidazol-2-yl)thieno[2,3-d]pyrimidin-4-amine] | 46 to 75 | 26 to 45 | 26 to 45 | 5 to 10 | 46 to 75 | Y | 76 to 100
9 | COc1cccc(Nc2nc(-c3nccn3C)nc3sc(-c4ccn(C(C)C)n4)c(C)c23)n1 [Compound 18, 6-(1-Isopropyl-1H-pyrazol-3-yl)-N-(6-methoxypyridin-2-yl)-5-methyl-2-(1-methyl-1H-imidazol-2-yl)thieno[2,3-d]pyrimidin-4-amine] | 46 to 75 | 46 to 75 | 46 to 75 | < 1 | 46 to 75 | Y | 76 to 100
10 | COc1cc(Nc2nc(-c3nccn3C)nc3sc(-c4ccn(C(C)C)n4)c(C)c23)ncn1 [Compound 19, 6-(1-Isopropyl-1H-pyrazol-3-yl)-N-(6-methoxypyrimidin-4-yl)-5-methyl-2-(1-methyl-1H-imidazol-2-yl)thieno[2,3-d]pyrimidin-4-amine] | 76 to 100 | 76 to 100 | 46 to 75 | 1 to 4.99 | 76 to 100 | Y | 76 to 100
